Measured values published in patent US11572590B2, “Methods for evaluating tumor cell spheroids using 3D microfluidic cell culture device” (Dana-Farber Cancer Institute, Inc., priority 2017, dated 2023).
Where two headings read alike, the source gives them in different places.

How the values were obtained:
Assay in all cases: SelectScreen Kinase Profiling, single point inhibition and IC50 for off-target kinases
Assay type in all cases: biochemical
off-target kinases [1] = biological target: T1, off-target kinases (Homo sapiens, UniProt Q13237); settings: PRKG2 (PKG2), ZLYTE, ATP Km app
T1 sequence (Q13237 1-762): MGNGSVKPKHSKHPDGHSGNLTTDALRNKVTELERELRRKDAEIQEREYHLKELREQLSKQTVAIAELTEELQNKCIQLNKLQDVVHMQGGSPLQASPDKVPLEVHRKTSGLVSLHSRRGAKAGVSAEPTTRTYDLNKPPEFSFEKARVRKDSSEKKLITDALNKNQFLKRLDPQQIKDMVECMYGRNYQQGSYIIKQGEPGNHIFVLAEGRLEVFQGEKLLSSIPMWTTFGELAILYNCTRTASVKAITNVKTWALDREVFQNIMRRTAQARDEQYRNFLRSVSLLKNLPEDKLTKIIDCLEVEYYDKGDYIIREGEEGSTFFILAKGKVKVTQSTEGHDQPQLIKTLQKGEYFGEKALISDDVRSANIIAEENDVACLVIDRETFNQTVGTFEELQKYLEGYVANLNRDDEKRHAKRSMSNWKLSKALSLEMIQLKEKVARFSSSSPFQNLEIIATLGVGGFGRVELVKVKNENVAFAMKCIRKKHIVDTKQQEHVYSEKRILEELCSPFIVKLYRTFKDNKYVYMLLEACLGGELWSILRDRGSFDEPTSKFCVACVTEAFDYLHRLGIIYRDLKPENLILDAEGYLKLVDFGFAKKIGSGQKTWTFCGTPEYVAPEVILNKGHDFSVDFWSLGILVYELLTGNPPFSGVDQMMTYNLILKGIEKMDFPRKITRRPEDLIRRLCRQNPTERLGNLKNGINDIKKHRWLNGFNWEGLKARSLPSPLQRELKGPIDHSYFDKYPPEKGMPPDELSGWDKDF
Protocol: (§1) Biochemical single point inhibition and IC50 concentrations for TBK1, IKKε (IKBKE), and off-target kinases were determined at ThermoFisher Scientific using SelectScreen Kinase Profiling Services (Madison, Wis., USA) (Tables S4A and S4B-1-7). To determine cellular potency, the human colorectal cancer carcinoma cell line HCT116 (ATCC, Manassas, Va.) was maintained in T175 flasks in complete RPMI medium; RPMI 1640 supplemented with 10% FBS, 1× Penicillin-Streptomycin solution and 1×MEM (non-essential amino acids). HCT116 cells were grown to 90-95% confluency in T175 flasks containing complete RPMI medium and transfected in bulk using Lipofectamine 2000 (Invitrogen, Carlsbad, Calif.) with 70 μg of ISG54-luciferase reporter plasmid (Elim Biopharmaceuticals Inc., Hayward, Calif.). The reporter plasmid contains a luciferase gene expression cassette under the transcriptional regulation of the promoter of the human interferon stimulated gene 54 (ISG54). Transfection of the cells was allowed to take place for 6 hours, after which the cells were harvested by treatment with 0.25% trypsin EDTA (Corning Inc., Corning, N.Y.). Trypsinized cells were added to 384-well poly-d-lysine treated black clear bottom tissue culture assay plates (Greiner Bio-One GmbH, Kremsmünster, Austria) at a density of 20,000 cells/well in 80 μL of complete RPMI medium and incubated overnight. After 16-18 hours post-transfection, the assay plates were washed with PBS (Corning Inc., Corning, N.Y.), followed by addition of 80 μL/well of serum-free RPMI 1640 medium containing 1× Penicillin-Streptomycin solution, 1×MEM and 350 nL of DMSO or titrations of Compound 1. Compound 1 titrations were generated by 1.5-fold dilution steps in two overlapping serial dilution series to generate a 40-point compound dose range. After incubation at 37° C. for 1 hour, the cells were stimulated with Poly(I:C) (InvivoGen, San Diego, Calif.) at a final concentration of 15 μg/mL in Optimem media (Life Technologies, Rockville, Md.). The assay plates were incubated for 5 hours at 37° C., followed by addition of One-Glo luciferase firefly reagent (Promega, Madison, Wis.) at 1:1 volume/well and luminescence was measured in an EnVision Multilabel Plate Reader (PerkinElmer, Santa Clara, Calif.). The EC50 values were calculated from the fit of the dose-response curves to a four-parameter equation. All EC50 values represent geometric mean values of a minimum of four determinations.

off-target kinases [2] = biological target: T2, off-target kinases (Homo sapiens, UniProt Q09013); settings: DMPK, LanthaScreen Binding
T2 sequence (Q09013 1-629): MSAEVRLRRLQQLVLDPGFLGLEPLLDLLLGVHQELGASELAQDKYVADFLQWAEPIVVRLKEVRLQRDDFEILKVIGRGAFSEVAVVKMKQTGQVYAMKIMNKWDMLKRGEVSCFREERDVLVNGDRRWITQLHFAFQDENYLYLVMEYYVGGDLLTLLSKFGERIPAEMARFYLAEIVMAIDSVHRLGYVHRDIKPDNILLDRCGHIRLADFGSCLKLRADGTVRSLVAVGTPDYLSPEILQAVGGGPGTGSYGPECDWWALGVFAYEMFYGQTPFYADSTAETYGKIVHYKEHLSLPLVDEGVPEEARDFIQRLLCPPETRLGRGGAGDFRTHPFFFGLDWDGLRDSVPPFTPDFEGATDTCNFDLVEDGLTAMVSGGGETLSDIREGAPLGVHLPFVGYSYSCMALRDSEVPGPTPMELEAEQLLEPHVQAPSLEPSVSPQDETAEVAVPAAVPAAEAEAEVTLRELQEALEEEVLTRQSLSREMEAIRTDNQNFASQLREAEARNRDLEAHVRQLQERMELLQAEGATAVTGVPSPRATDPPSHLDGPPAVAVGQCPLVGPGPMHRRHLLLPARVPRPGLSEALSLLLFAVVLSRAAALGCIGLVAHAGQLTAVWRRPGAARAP
Protocol: as §1

off-target kinases [3] = biological target: off-target kinases (Homo sapiens, UniProt P78362); settings: SRPK2; Cmpd1 1000 μM; ATP Km app; ZLYTE
Protocol: as §1

off-target kinases [4] = biological target: off-target kinases (Homo sapiens, UniProt P22455); settings: FGFR4, ZLYTE, ATP Km app
Protocol: as §1

Sequence of off-target kinases (Homo sapiens, UniProt P78362) (P78362 whole entry): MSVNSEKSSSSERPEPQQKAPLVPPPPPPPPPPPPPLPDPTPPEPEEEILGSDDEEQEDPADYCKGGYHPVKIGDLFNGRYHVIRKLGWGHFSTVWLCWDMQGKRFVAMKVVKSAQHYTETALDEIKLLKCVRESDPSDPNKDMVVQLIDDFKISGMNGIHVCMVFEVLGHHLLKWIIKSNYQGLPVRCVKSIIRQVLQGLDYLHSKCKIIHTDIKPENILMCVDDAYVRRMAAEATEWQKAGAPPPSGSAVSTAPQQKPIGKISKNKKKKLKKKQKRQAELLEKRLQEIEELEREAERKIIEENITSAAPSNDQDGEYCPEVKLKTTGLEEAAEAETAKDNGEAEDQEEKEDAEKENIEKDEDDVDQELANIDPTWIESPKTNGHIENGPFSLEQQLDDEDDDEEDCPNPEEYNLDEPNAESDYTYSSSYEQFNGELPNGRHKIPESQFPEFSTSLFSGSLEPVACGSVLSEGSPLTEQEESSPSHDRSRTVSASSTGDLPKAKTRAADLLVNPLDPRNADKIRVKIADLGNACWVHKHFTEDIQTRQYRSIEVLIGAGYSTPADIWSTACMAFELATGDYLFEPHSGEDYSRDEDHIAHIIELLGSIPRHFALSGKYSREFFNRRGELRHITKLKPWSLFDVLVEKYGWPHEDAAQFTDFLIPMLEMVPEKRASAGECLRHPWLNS
Sequence of off-target kinases (Homo sapiens, UniProt P22455) (P22455 22-802): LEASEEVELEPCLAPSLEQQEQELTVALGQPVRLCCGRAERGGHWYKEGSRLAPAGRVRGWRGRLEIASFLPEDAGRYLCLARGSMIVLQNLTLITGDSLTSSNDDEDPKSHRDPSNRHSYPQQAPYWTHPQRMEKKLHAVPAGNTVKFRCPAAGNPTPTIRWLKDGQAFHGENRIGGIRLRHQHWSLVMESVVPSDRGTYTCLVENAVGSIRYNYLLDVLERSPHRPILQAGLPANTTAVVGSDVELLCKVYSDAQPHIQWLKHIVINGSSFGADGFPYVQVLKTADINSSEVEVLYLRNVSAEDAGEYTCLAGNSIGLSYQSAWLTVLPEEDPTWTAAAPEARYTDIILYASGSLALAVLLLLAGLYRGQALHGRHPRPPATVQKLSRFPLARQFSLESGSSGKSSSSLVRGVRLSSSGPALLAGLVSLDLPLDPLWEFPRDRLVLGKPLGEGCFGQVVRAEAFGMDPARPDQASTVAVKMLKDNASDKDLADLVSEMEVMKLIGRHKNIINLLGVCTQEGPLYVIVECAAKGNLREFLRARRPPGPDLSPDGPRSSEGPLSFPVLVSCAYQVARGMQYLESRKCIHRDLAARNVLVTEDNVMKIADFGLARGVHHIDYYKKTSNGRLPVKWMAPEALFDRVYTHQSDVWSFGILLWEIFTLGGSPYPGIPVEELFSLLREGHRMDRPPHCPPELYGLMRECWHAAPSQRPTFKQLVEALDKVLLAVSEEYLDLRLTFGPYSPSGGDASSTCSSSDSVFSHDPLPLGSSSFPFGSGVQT

N#Cc1cc(-c2ncnc(Nc3ccc(N4CCN(C5COC5)CC4)cc3)n2)ccc1OC1CCOCC1 [Compound 1, 5-(4-((4-(4-(oxetan-3-yl)piperazin-1-yl)phenyl)amino)-1,3,5-triazin-2-yl)-2-((tetrahydro-2H-pyran-4-yl)oxy)benzonitrile]
inhibition (off-target kinases [1]; read-out: % Inhibition 1): 16% | inhibition (off-target kinases [1]; read-out: % Inhibition 2): 13% | inhibition (off-target kinases [1]; read-out: % Inhibition Avg): 14% | inhibition (off-target kinases [2]; read-out: % Inhibition 1): 76% | inhibition (off-target kinases [2]; read-out: % Inhibition 2): 79% | inhibition (off-target kinases [2]; read-out: % Inhibition Avg): 78% | % Inhibition 1 (off-target kinases [3]): −2% | % Inhibition 2 (off-target kinases [3]): −4% | % Inhibition Avg (off-target kinases [3]): −3% | inhibition (off-target kinases [4]; read-out: % Inhibition 1): 7% | inhibition (off-target kinases [4]; read-out: % Inhibition 2): -2% | inhibition (off-target kinases [4]; read-out: % Inhibition Avg): 3%
